According to patent US9758485B2, “Compounds for controlling arthropods” (priority 2013, dated 2017):

Tested on: Boophilus microplus
Assay: Boophilus microplus - injection test
Type: in vivo
Settings: application rate 20 μg/animal; injected into engorged adult female ticks; laying of fertile eggs, after 7 days
Procedure: Boophilus microplus—Injection Test
(§1) Solvent: dimethyl sulphoxide
To produce an appropriate active ingredient formulation, 10 mg of active ingredient are mixed with 0.5 ml of solvent and the concentrate is diluted with solvent to the desired concentration.
1 μl of the active ingredient solution is injected into the abdomen of 5 engorged adult female cattle ticks (Boophilus microplus). The animals are transferred into dishes and kept in a climate-controlled room.
(§2) Efficacy is assessed after 7 days by laying of fertile eggs. Eggs which are not visibly fertile are stored in a climate-controlled cabinet until the larvae hatch after about 42 days. An efficacy of 100% means that none of the ticks has laid any fertile eggs; 0% means that all the eggs are fertile.

| Structure (SMILES) | efficacy |
| --- | --- |
| CCc1cc(C(F)(C(F)(F)F)C(F)(F)F)ccc1-n1cc(-c2ccc(Cl)c(C(=O)NC3CC3)c2)cn1 [I-T3-39] | 100% |
| Cc1cc(C(F)(C(F)(F)F)C(F)(F)F)cc(C(F)(F)F)c1-n1cc(-c2ccc(Cl)c(C(=O)NCC(F)(F)F)c2)cn1 [I-T3-84] | 100% |
| Cc1cc(C(F)(C(F)(F)F)C(F)(F)F)cc(C(F)(F)F)c1-n1cc(-c2ccc(Cl)c(C(=O)NC3CSC3)c2)cn1 [I-T3-85] | 100% |
| N#CC1(NC(=O)c2cc(-c3cnn(-c4c(Cl)cc(OC(F)(F)F)cc4Cl)c3)ccc2Cl)CC1 [I-T3-87] | 100% |
| CN(C(=O)c1cc(-c2cnn(-c3c(Cl)cc(C(F)(F)F)cc3Cl)c2)cnc1Cl)C1CC1 [I-T3-99] | 100% |
| CN(C(=O)c1cc(-c2cnn(-c3c(Cl)cc(C(F)(C(F)(F)F)C(F)(F)F)cc3C(F)(F)F)c2)cnc1Cl)C1CC1 [I-T3-113] | 100% |
| Cc1cc(C(F)(C(F)(F)F)C(F)(F)F)cc(C)c1-n1cc(-c2cnc(C)c(C(=O)N(C)C3(C#N)CC3)c2)cn1 [I-T3-115] | 100% |

Tested on: Musca domestica
Assay: Musca domestica test
Type: in vivo
Settings: application rate 100 ppm; adult houseflies; kill after 2 days
Procedure: as §1
(§3) To produce an appropriate active ingredient formulation, 10 mg of active ingredient are mixed with 0.5 ml of dimethyl sulphoxide, and the concentrate is diluted with water to the desired concentration.
Vessels containing a sponge treated with sugar solution and the active ingredient formulation of the desired concentration are populated with 10 adult houseflies (Musca domestica).
After 2 days, the kill in % is determined. 100% means that all of the flies have been killed; 0% means that none of the flies have been killed.

| Structure (SMILES) | efficacy |
| --- | --- |
| Cc1cc(C(F)(C(F)(F)F)C(F)(F)F)cc(C(F)(F)F)c1-n1cc(-c2ccc(Cl)c(C(=O)NCC(F)(F)F)c2)cn1 [I-T3-84] | 100% |
| Cc1cc(C(F)(C(F)(F)F)C(F)(F)F)cc(C(F)(F)F)c1-n1cc(-c2ccc(Cl)c(C(=O)NC3CSC3)c2)cn1 [I-T3-85] | 100% |
| N#CC1(NC(=O)c2cc(-c3cnn(-c4c(Cl)cc(OC(F)(F)F)cc4Cl)c3)ccc2Cl)CC1 [I-T3-87] | 100% |
| CN(C(=O)c1cc(-c2cnn(-c3c(Cl)cc(C(F)(F)F)cc3Cl)c2)cnc1Cl)C1CC1 [I-T3-99] | 90% |
| CN(C(=O)c1cc(-c2cnn(-c3c(Cl)cc(C(F)(C(F)(F)F)C(F)(F)F)cc3C(F)(F)F)c2)cnc1Cl)C1CC1 [I-T3-113] | 100% |
| Cc1cc(C(F)(C(F)(F)F)C(F)(F)F)cc(C)c1-n1cc(-c2cnc(C)c(C(=O)N(C)C3(C#N)CC3)c2)cn1 [I-T3-115] | 100% |

Tested on: Lucilia cuprina
Assay: Lucilia cuprina test
Type: in vivo
Settings: application rate 100 ppm; L1 larvae in minced horsemeat; kill after 2 days
Procedure: as §1, §3
About 20 L1 larvae of the Australian sheep blowfly (Lucilia cuprina) are transferred into a test vessel containing minced horsemeat and the active ingredient preparation of the desired concentration.
After 2 days, the kill in % is determined. 100% means that all the larvae have been killed; 0% means that none of the larvae have been killed.

| Structure (SMILES) | efficacy |
| --- | --- |
| CCc1cc(C(F)(C(F)(F)F)C(F)(F)F)ccc1-n1cc(-c2ccc(Cl)c(C(=O)NC3CC3)c2)cn1 [I-T3-39] | 100% |
| Cc1cc(C(F)(C(F)(F)F)C(F)(F)F)cc(C(F)(F)F)c1-n1cc(-c2ccc(Cl)c(C(=O)NCC(F)(F)F)c2)cn1 [I-T3-84] | 100% |
| Cc1cc(C(F)(C(F)(F)F)C(F)(F)F)cc(C(F)(F)F)c1-n1cc(-c2ccc(Cl)c(C(=O)NC3CSC3)c2)cn1 [I-T3-85] | 100% |
| N#CC1(NC(=O)c2cc(-c3cnn(-c4c(Cl)cc(OC(F)(F)F)cc4Cl)c3)ccc2Cl)CC1 [I-T3-87] | 100% |
| CN(C(=O)c1cc(-c2cnn(-c3c(Cl)cc(C(F)(F)F)cc3Cl)c2)cnc1Cl)C1CC1 [I-T3-99] | 100% |
| CN(C(=O)c1cc(-c2cnn(-c3c(Cl)cc(C(F)(C(F)(F)F)C(F)(F)F)cc3C(F)(F)F)c2)cnc1Cl)C1CC1 [I-T3-113] | 100% |
| Cc1cc(C(F)(C(F)(F)F)C(F)(F)F)cc(C)c1-n1cc(-c2cnc(C)c(C(=O)N(C)C3(C#N)CC3)c2)cn1 [I-T3-115] | 100% |

Tested on: Boophilus microplus Parkhurst strain, SP-resistant
Assay: Boophilus microplus - dip test
Type: in vivo
Settings: application rate 100 ppm; dip of engorged adult female ticks; laying of fertile eggs, after 7 days
Procedure: Boophilus microplus—Dip Test
Test animals: cattle ticks (Boophilus microplus) Parkhurst strain, SP-resistant
as §1
10 mg of active ingredient are dissolved in 0.5 ml of dimethyl sulphoxide. For the purpose of producing a suitable formulation, the active ingredient solution is diluted with water to the concentration desired in each case.
This active ingredient formulation is pipetted into tubes. 8-10 adult engorged female cattle ticks (Boophilus microplus) are transferred into a further tube with holes. The tube is immersed into the active ingredient formulation, and all the ticks are completely wetted. After the liquid has run out, the ticks are transferred on filter discs into plastic dishes and stored in a climate-controlled room.
as §2

| Structure (SMILES) | efficacy |
| --- | --- |
| CCc1cc(C(F)(C(F)(F)F)C(F)(F)F)ccc1-n1cc(-c2ccc(Cl)c(C(=O)NC3CC3)c2)cn1 [I-T3-39] | 100% |
| CN(C(=O)c1cc(-c2cnn(-c3c(Cl)cc(C(F)(F)F)cc3Cl)c2)cnc1Cl)C1CC1 [I-T3-99] | 90% |
| CN(C(=O)c1cc(-c2cnn(-c3c(Cl)cc(C(F)(C(F)(F)F)C(F)(F)F)cc3C(F)(F)F)c2)cnc1Cl)C1CC1 [I-T3-113] | 100% |
| Cc1cc(C(F)(C(F)(F)F)C(F)(F)F)cc(C)c1-n1cc(-c2cnc(C)c(C(=O)N(C)C3(C#N)CC3)c2)cn1 [I-T3-115] | 100% |

Tested on: Ctenocephalides felis
Assay: Ctenocephalides felis - in vitro contact tests with adult cat fleas
Type: in vivo
Settings: application rate 5 μg/cm^2 (=500 g/ha), after 48 h (dead or moribund)
Procedure: Ctenocephalides felis—In Vitro Contact Tests with Adult Cat Fleas
For the coating of the test tubes, 9 mg of active ingredient are first dissolved in 1 ml of acetone p.a. and then diluted to the desired concentration with acetone p.a. 250 μl of the solution are distributed homogeneously on the inner walls and base of a 25 ml test tube by turning and rocking on an orbital shaker (rocking rotation at 30 rpm for 2 h). With 900 ppm active ingredient solution and internal surface area 44.7 cm^2, given homogeneous distribution, an area-based dose of 5 μg/cm^2 is achieved.
After the solvent has evaporated off, the tubes are populated with 5-10 adult cat fleas (Ctenocephalides felis), sealed with a perforated plastic lid and incubated in a horizontal position at room temperature and ambient humidity. After 48 h, efficacy is determined. To this end, the test tubes are stood upright and the fleas are knocked to the base of the tube. Fleas which remain motionless at the base or move in an uncoordinated manner are considered to be dead or moribund.
100% efficacy means that all the fleas were dead or moribund. 0% efficacy means that no fleas were harmed.

| Structure (SMILES) | efficacy |
| --- | --- |
| Cc1cc(C(F)(C(F)(F)F)C(F)(F)F)cc(C(F)(F)F)c1-n1cc(-c2ccc(Cl)c(C(=O)NCC(F)(F)F)c2)cn1 [I-T3-84] | 100% |
| Cc1cc(C(F)(C(F)(F)F)C(F)(F)F)cc(C(F)(F)F)c1-n1cc(-c2ccc(Cl)c(C(=O)NC3CSC3)c2)cn1 [I-T3-85] | 100% |
| N#CC1(NC(=O)c2cc(-c3cnn(-c4c(Cl)cc(OC(F)(F)F)cc4Cl)c3)ccc2Cl)CC1 [I-T3-87] | 100% |
| CN(C(=O)c1cc(-c2cnn(-c3c(Cl)cc(C(F)(F)F)cc3Cl)c2)cnc1Cl)C1CC1 [I-T3-99] | 100% |
| CN(C(=O)c1cc(-c2cnn(-c3c(Cl)cc(C(F)(C(F)(F)F)C(F)(F)F)cc3C(F)(F)F)c2)cnc1Cl)C1CC1 [I-T3-113] | 100% |
| Cc1cc(C(F)(C(F)(F)F)C(F)(F)F)cc(C)c1-n1cc(-c2cnc(C)c(C(=O)N(C)C3(C#N)CC3)c2)cn1 [I-T3-115] | 100% |

Tested on: Ctenocephalides felis
Assay: Ctenocephalides felis - oral test
Type: in vivo
Settings: application rate 100 ppm in citrated cattle blood; adult fleas; kill after 2 days
Procedure: Ctenocephalides felis—Oral Test
as §1
For the purpose of producing an appropriate active ingredient formulation, 10 mg of active ingredient are mixed with 0.5 ml of dimethyl sulphoxide. Dilution with citrated cattle blood gives the desired concentration.
About 20 unfed adult cat fleas (Ctenocephalides felis) are placed into a chamber which is closed at the top and bottom with gauze. A metal cylinder whose bottom end is closed with parafilm is placed onto the chamber. The cylinder contains the blood/active ingredient preparation, which can be imbibed by the fleas through the parafilm membrane.
After 2 days, the kill in % is determined. 100% means that all of the fleas have been killed; 0% means that none of the fleas have been killed.

| Structure (SMILES) | efficacy |
| --- | --- |
| CCc1cc(C(F)(C(F)(F)F)C(F)(F)F)ccc1-n1cc(-c2ccc(Cl)c(C(=O)NC3CC3)c2)cn1 [I-T3-39] | 100% |
| Cc1cc(C(F)(C(F)(F)F)C(F)(F)F)cc(C(F)(F)F)c1-n1cc(-c2ccc(Cl)c(C(=O)NCC(F)(F)F)c2)cn1 [I-T3-84] | 100% |
| Cc1cc(C(F)(C(F)(F)F)C(F)(F)F)cc(C(F)(F)F)c1-n1cc(-c2ccc(Cl)c(C(=O)NC3CSC3)c2)cn1 [I-T3-85] | 100% |
| N#CC1(NC(=O)c2cc(-c3cnn(-c4c(Cl)cc(OC(F)(F)F)cc4Cl)c3)ccc2Cl)CC1 [I-T3-87] | 100% |
| CN(C(=O)c1cc(-c2cnn(-c3c(Cl)cc(C(F)(F)F)cc3Cl)c2)cnc1Cl)C1CC1 [I-T3-99] | 100% |
| CN(C(=O)c1cc(-c2cnn(-c3c(Cl)cc(C(F)(C(F)(F)F)C(F)(F)F)cc3C(F)(F)F)c2)cnc1Cl)C1CC1 [I-T3-113] | 100% |
| Cc1cc(C(F)(C(F)(F)F)C(F)(F)F)cc(C)c1-n1cc(-c2cnc(C)c(C(=O)N(C)C3(C#N)CC3)c2)cn1 [I-T3-115] | 100% |

Tested on: not listed separately
Assay: logP determination by HPLC on a reversed-phase column (C18), EEC Directive 79/831 Annex V.A8
Type: physicochemical
Settings: HPLC-MS method a), Table I-T3

| Structure (SMILES) | logP^a) |
| --- | --- |
| CCc1cc(C(F)(C(F)(F)F)C(F)(F)F)ccc1-n1cc(-c2ccc(Cl)c(C(=O)NC3CC3)c2)cn1 [I-T3-39] | 4.6 |
| Cc1cc(C(F)(C(F)(F)F)C(F)(F)F)cc(C(F)(F)F)c1-n1cc(-c2ccc(Cl)c(C(=O)NCC(F)(F)F)c2)cn1 [I-T3-84] | 4.7 |
| Cc1cc(C(F)(C(F)(F)F)C(F)(F)F)cc(C(F)(F)F)c1-n1cc(-c2ccc(Cl)c(C(=O)NC3CSC3)c2)cn1 [I-T3-85] | 4.7 |
| N#CC1(NC(=O)c2cc(-c3cnn(-c4c(Cl)cc(OC(F)(F)F)cc4Cl)c3)ccc2Cl)CC1 [I-T3-87] | 3.6 |

Same assay, conditions: HPLC-MS, reversed-phase column (C18)

| Structure (SMILES) | log P |
| --- | --- |
| CN(C(=O)c1cc(-c2cnn(-c3c(Cl)cc(C(F)(F)F)cc3Cl)c2)cnc1Cl)C1CC1 [I-T3-99] | 3.5 |
| CN(C(=O)c1cc(-c2cnn(-c3c(Cl)cc(C(F)(C(F)(F)F)C(F)(F)F)cc3C(F)(F)F)c2)cnc1Cl)C1CC1 [I-T3-113] | 4.0 |
| Cc1cc(C(F)(C(F)(F)F)C(F)(F)F)cc(C)c1-n1cc(-c2cnc(C)c(C(=O)N(C)C3(C#N)CC3)c2)cn1 [I-T3-115] | 3.8 |
